We go through 49 compounds from PMC7529893, “Structural basis for substrate recognition and chemical inhibition of oncogenic MAGE ubiquitin ligases” (Nature Communications, 2020).

The target of one experiment is T1, MAGE-A11:PCF11 interaction (GST-MAGE-A11 MHD and FAM-PCF11_4) (Homo sapiens, UniProt P43364).
T1 construct: GST-MAGE-A11 MHD (human MAGE-A11 MHD amino acid 218-429); made in house; host or cells: E. coli BL21(DE3)
T1 sequence (P43364 218-429): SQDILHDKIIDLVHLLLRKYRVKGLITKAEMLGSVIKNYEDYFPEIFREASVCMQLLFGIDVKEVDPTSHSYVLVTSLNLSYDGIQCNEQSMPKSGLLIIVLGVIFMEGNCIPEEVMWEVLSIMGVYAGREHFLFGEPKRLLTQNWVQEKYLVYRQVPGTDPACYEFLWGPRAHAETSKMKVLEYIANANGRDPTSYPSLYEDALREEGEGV
Description: TR-FRET dose response test of compounds for disruption of MAGE-A11:PCF11 binding.
Conditions: not given
The method, then:
The TR-FRET assay buffer with a formula of 50 mM Tris pH 7.5, 20 mM MgCl2, 0.1 mg/ml BSA and 1 mM DTT was freshly prepared before each experiment. All TR-FRET assays were performed in black 384-well plates with 20 µl/well assay volume in the TR-FRET assay buffer at room temperature (~25 °C). All peptides or compounds were solubilized in DMSO. To test the competitive activity of peptides or compounds against the interaction between GST-MAGE-A11 MHD and FAM-PCF11_4 peptide, 10 µl/well peptide or compound at specified concentration was dispensed into a black 384-well low volume plate, followed by 5 µl/well FAM-PCF11_4 (800 nM), 5 µl/well Tb-anti-GST (20 nM), and GST-MAGE-A11 MHD (20 nM). The assay components in each well was then mixed by shaking the plate on an IKA MTS 2/4 digital microtiter plate shaker (IKA Works; Wilmington, NC, USA) for 1 min. The plate was further centrifuged in an Eppendorf 5810 centrifuge with an A-4-62 swing-bucket rotor (Eppendorf AG, Hamburg, Germany) at 201 g for 30 s. The plate was then incubated for 90 min with a lid to avoid light exposure to the assay components. After incubation, the fluorescent emission signals at 520 nm and 490 nm channels of individual wells were measured with a PHERAstar FS plate reader (BMG Labtech; Durham, NC, USA) by using a 340 nm excitation filter, 100 µs delay time, and 200 µs integration time. The TR-FRET fluorescence emission ratio (TR-FRET signal) for each well was presented as 10,000 × 520 nm/490 nm, which was used directly for curve fitting, or further converted to %Inhibition based on the respective positive and negative controls. The graphic software GraphPad Prism 4.81 (GraphPad Software; La Jolla, CA, USA) was used to generate curves and derive IC50 values of tested peptides or compounds, if applicable.
TR-FRET screen for identifying MAGE-A11 small molecule inhibitors was performed as follows. The primary one-concentration screening and subsequent 10 or 20-concentration dose-response tests were accomplished with an automated High Throughput Screening system (HighRes Biosolutions, Beverly, MA)[30]. In the primary screening, 15 µl/well FAM-PCF11_4 (267 nM) was first dispensed with a Multidrop Combi Reagent Dispenser (Thermo Fisher Scientific, Waltham, MA) to black 384-well low-volume assay plates. The plates were spun down with a Velocity11 VSpin microplate centrifuge (Agilent Technologies, Santa Clara, CA). In total, 30 nl/well of 10 mM compound/DMSO solutions, or DMSO alone, were transferred from compound plates (the St. Jude FDA drug and bioactive library, Drug-like library and Lead-like library) or a control plate to the assay plates with a Pin Tool (V&P Scientific, San Diego, CA). The compounds were arrayed in columns 3–12 and columns 15–24 of compound plates. The controls were arrayed in columns 1, 2, 13, and 14 of a compound plate. In all, 5 µl/well Tb-anti-GST (20 nM) and GST-MAGE-A11 (20 nM) or 5 µl/well Tb-anti-GST (20 nM) alone was then dispensed to selected wells with a Multidrop Combi Reagent Dispenser. The final assay volume was 20 µl/well. The final DMSO concentration was 0.25% (v/v) (0.1% (v/v) from the FAM-PCF11_4 DMSO stock solution and 0.15% (v/v) from the compound-DMSO solution or the DMSO for the control wells). The final tested compound concentration was 15 µM. The final FAM-PCF11_4 concentration was 200 nM and the final Tb-anti-GST concentration was 5 nM. The final GST-MAGE-A11 concentration was 5 nM except for those selected positive control wells in which GST-MAGE-A11 was not presented. The plates were then shaken with a big bear shaker (Big Bear Automation, Santa Clara, California) and spun down with the Velocity11 VSpin microplate centrifuge for 20 s. The plates were then incubated at room temperature in a Liconic incubator (Liconic US, Woburn, MA) for 90 min. The TR-FRET signals for individual wells were measured with a PHERAstar FS plate reader. The %Inhibition of each tested inhibitor was calculated by using Eq. 1.
In general terms: Time-resolved FRET reads energy transfer from a long-lived donor to a nearby acceptor.
Consider `COP(=O)(OC)c1nc(-c2ccc(Cl)cc2)oc1N1CCOCC1` [SJ000090185-1], for which the 50% inhibitory concentration (IC50) (usually the concentration that gives 50% inhibition) is 17.4 µM.

The experiment is the same for the next values; noted with them: Dose response TR-FRET screening of nine scaffold groups against MAGE-A11:PCF11; read-out: consensus IC50.
`CCCCOc1ccc(N(C(C)=O)C2=C(Cl)C(=O)c3ccccc3C2=O)cc1` [SJ000032717-1]: the IC50 was found to be 8.71 µM. On to `CCCCCOc1ccc(N(C(C)=O)C2=C(Cl)C(=O)c3ccccc3C2=O)cc1` [SJ000032724-1], for which the IC50 amounted to 28.3 µM. As for `COc1cccc(-c2nc(S(=O)(=O)c3ccc(C)cc3)c(N3CCOCC3)o2)c1` [SJ000038123-1], the IC50 came out at 17.4 µM. As to `COc1cccc(-c2nc(S(=O)(=O)c3ccc(Cl)cc3)c(N3CCOCC3)o2)c1` [SJ000038124-1], the IC50 was 7.43 µM. With `CN(C)c1ccc(NC2=C(Cl)C(=O)c3ccccc3C2=O)cc1` [SJ000109503-1], the 50% inhibitory concentration (IC50) stood at 3.3 µM. In the case of `COc1cc2nc(N3CCN(C(=O)C4COc5ccccc5O4)CC3)nc(N)c2cc1OC` (stereo not shown) [SJ000113084-10], the IC50 is 57.1 µM.

Consider `CCOC(=O)N1CCN(Cc2ccc3c(c2)c2ccccc2n3CC)CC1` [SJ000147352-1], for which the half-inhibitory concentration (IC50) was found to be 29.5 µM. In the case of `CCC(COC(C)=O)NC1=C(Cl)C(=O)c2ccccc2C1=O` (stereo not shown) [SJ000149466-1], the 50% inhibitory concentration (IC50) worked out at 17.2 µM.

`CCCS(=O)(=O)N1CCN(Cc2ccc3c(c2)c2ccccc2n3CC)CC1` [SJ000167951-1]: the IC50 is 19.2 µM. The same measure, in the same setting: to `Cc1ccc(S(=O)(=O)c2nc(-c3ccc(F)cc3)oc2N2CCOCC2)cc1` [SJ000230854-1] belongs 11.7 µM; to `Cc1ccc(S(=O)(=O)c2nc(-c3ccccc3Cl)oc2N2CCOCC2)cc1` [SJ000230856-1], 4.34 µM. With `O=S(=O)(c1ccccc1)c1nc(-c2ccc(Br)cc2)oc1N1CCOCC1` [SJ000244320-1], the half-maximal inhibitory concentration (IC50) came out at 8.63 µM. Take `CS(=O)(=O)c1ccc(C2=C(c3ccccc3)C(=O)OC2)cc1` [SJ000285362-5]: the IC50 turned out to be 67.6 µM. Take `COc1cc2nc(N(C)CCCNC(=O)C3CCCO3)nc(N)c2cc1OC` (stereo not shown) [SJ000286094-9]: the concentration for half-maximal inhibition (IC50) worked out at 36.2 µM. On to `C=CCn1c(=O)c2c(nc(-c3ccc(S(=O)(=O)O)cc3)n2C)n(C)c1=O` [SJ000287614-4], for which the IC50 was greater than 70 µM.

Take `Cn1c(=O)c2[nH]c(-c3ccc(S(=O)(=O)O)cc3)nc2n(C)c1=O` [SJ000287642-4]: the IC50 turned out to be 21.8 µM. Regarding `NC1=C(N2CCCCC2)C(=O)c2ccccc2C1=O` [SJ000294373-2], the half-inhibitory concentration (IC50) turned out to be 20.1 µM. The same measure, in the same setting: to `CC(C)(C)c1ccc(O)c(CNCCCNc2ccnc3cc(Cl)ccc23)c1` [SJ000311193-1] belongs 30.4 µM; to `c1ccc(Oc2ccc3c(NCCCNCc4cccc5c4OCO5)ccnc3c2)cc1` [SJ000311208-1], 30.1 µM; to `COc1ccc(F)cc1CNCCCNc1ccnc2cc(Oc3ccccc3)ccc12` [SJ000311209-1], 29 µM. Take `COc1cccc(Oc2ccc3c(NCCCNCc4cccc5c4OCO5)ccnc3c2)c1` [SJ000311216-1]: the IC50 came out at 36.9 µM. As to `COc1cccc(Oc2ccc3c(NCCCNCc4cc(F)ccc4OC)ccnc3c2)c1` [SJ000311217-1], the IC50 was 36.8 µM. `COc1ccc(Oc2ccc3c(NCCCNCc4cccc(OC)c4O)ccnc3c2)cc1` [SJ000311219-1]: the IC50 turned out to be 29 µM. Consider `COc1ccc(Oc2ccc3c(NCCCNCc4cccc5c4OCO5)ccnc3c2)cc1` [SJ000311220-1], for which the half-inhibitory concentration (IC50) was determined as 43.7 µM. On the same count and under the same terms, to `COc1ccc(Oc2ccc3c(NCCCNCc4cc(F)ccc4OC)ccnc3c2)cc1` [SJ000311221-1] belongs 46.4 µM. For the compound `COc1cccc(CNCCCNc2ccnc3cc(Oc4ccc(F)cc4)ccc23)c1O` [SJ000311223-1], the IC50 is 61.9 µM. For `Fc1ccc(Oc2ccc3c(NCCCNCc4cccc5c4OCO5)ccnc3c2)cc1` [SJ000311224-1], the concentration for half-maximal inhibition (IC50) is 59.6 µM. For the compound `COc1cccc(CNCCCNc2ccnc3cc(Oc4ccc(Cl)cc4)ccc23)c1O` [SJ000311227-1], the IC50 is 20.7 µM. Regarding `Clc1ccc(Oc2ccc3c(NCCCNCc4cccc5c4OCO5)ccnc3c2)cc1` [SJ000311228-1], the IC50 amounted to 17.7 µM.

As for `COc1ccc(F)cc1CNCCCNc1ccnc2cc(Oc3ccc(Cl)cc3)ccc12` [SJ000311229-1], the IC50 is 19.7 µM. For the compound `COc1ccc(F)cc1CNCCCNc1ccnc2cc(Oc3cccc(N(C)C)c3)ccc12` [SJ000311233-1], the IC50 stood at 5.63 µM.

On to `COc1cccc(CNCCCNc2ccnc3cc(Oc4ccc(C(C)(C)C)cc4)ccc23)c1O` [SJ000311235-1], for which the half-maximal inhibitory concentration (IC50) came to 7.65 µM. Regarding `CC(C)(C)c1ccc(Oc2ccc3c(NCCCNCc4cccc5c4OCO5)ccnc3c2)cc1` [SJ000311236-1], the IC50 was 8.67 µM. With `COc1ccc(F)cc1CNCCCNc1ccnc2cc(Oc3ccc(C(C)(C)C)cc3)ccc12` [SJ000311237-1], the half-maximal inhibitory concentration (IC50) was 6.29 µM. As for `COc1cccc(CNCCCNc2ccnc3cc(-c4ccc(F)cc4)ccc23)c1O` [SJ000311239-1], the IC50 came to 33.3 µM.

For the compound `Fc1ccc(-c2ccc3c(NCCCNCc4cccc5c4OCO5)ccnc3c2)cc1` [SJ000311240-1], the half-maximal inhibitory concentration (IC50) stood at 25 µM. Turning to `COc1ccc(F)cc1CNCCCNc1ccnc2cc(-c3ccc(F)cc3)ccc12` [SJ000311241-1], the IC50 is 38.9 µM.

In the case of `COc1cccc(CNCCCNc2ccnc3cc(Cc4ccc(F)cc4)ccc23)c1O` [SJ000311243-1], the half-maximal inhibitory concentration (IC50) was 43.6 µM. `Fc1ccc(Cc2ccc3c(NCCCNCc4cccc5c4OCO5)ccnc3c2)cc1` [SJ000311244-1]: the half-maximal inhibitory concentration (IC50) is 42.3 µM. Take `COc1ccc(F)cc1CNCCCNc1ccnc2cc(Cc3ccc(F)cc3)ccc12` [SJ000311245-1]: the IC50 came to 35.1 µM. On the same count and under the same terms, the figure for `CC(C)CCc1ccc2c(NCCCNCc3cccc4c3OCO4)ccnc2c1` [SJ000311248-1] is 27.7 µM; for `COc1cccc(CNCCCNc2ccnc3cc(CC4CCCCC4)ccc23)c1O` [SJ000311251-1] it is 29.2 µM. Turning to `c1cc(CNCCCNc2ccnc3cc(CC4CCCCC4)ccc23)c2c(c1)OCO2` [SJ000311252-1], the IC50 was found to be 16 µM.

The same experiment, now with this note: Supplementary Data 3, 59 quinoline compounds; read-out: TR-FRET IC50.
Consider `COc1ccc(Oc2ccc3c(NCCCNCc4ccco4)ccnc3c2)cc1` [SJ000311218-1, COc1ccc(Oc2ccc3c(NCCCNCc4occc4)ccnc3c2)cc1], for which the IC50 is greater than 70 µM.

For the compound `Clc1ccc(Oc2ccc3c(NCCCNCc4ccco4)ccnc3c2)cc1` [SJ000311226-1, Clc1ccc(Oc2ccc3c(NCCCNCc4occc4)ccnc3c2)cc1], the IC50 is greater than 70 µM. Take `CN(C)c1cccc(Oc2ccc3c(NCCCNCc4ccco4)ccnc3c2)c1` [SJ000311230-1, CN(C)c1cccc(Oc2ccc3c(NCCCNCc4occc4)ccnc3c2)c1]: the IC50 is greater than 70 µM. In the case of `CC(C)(C)c1ccc(Oc2ccc3c(NCCCNCc4ccco4)ccnc3c2)cc1` [SJ000311234-1, CC(C)(C)c1ccc(Oc2ccc3c(NCCCNCc4occc4)ccnc3c2)cc1], the IC50 is 32.1 µM. Still for that read-out and setting: the figure for `c1coc(CNCCCNc2ccnc3cc(CC4CCCCC4)ccc23)c1` [SJ000311250-1, C(CNCc1occc1)CNc2ccnc3cc(CC4CCCCC4)ccc23] is 54.9 µM.
